US6846492B2, “Use of phenylethylamine derivatives for the antimicrobial treatment of surfaces” (Ciba Specialty Chemicals Corporation, priority 2000, dated 2005)

Test system: Candida albicans ATCC 10231 (= CA)
Experiment: MIC determination in microtiter plates, Candida albicans
Type: cell-based
Settings: Tables 2a/2b, 48 hours at 37° C., ≦20% growth, optical density 620 nm, some approximate values
Protocol: (§1) Determination of the Minimum Inhibitory Concentration (MIC Value) in Microtiter Plates
(§2) Casein/soybean flour peptone bouillon for the preparation of pre-cultures of the test bacteria and yeast.
(§3) Mycological slant agar for the pre-culture of moulds
(§4) The test substances are pre-dissolved in dimethyl sulfoxide (DMSO) and tested in a dilution series of 1:2.
(§5) Bacteria and yeast are cultured overnight in CASO bouillon, the mould is cultured overnight on mycological slant agar, and washed off with 10 ml of 0.85% sodium chloride solution (+0.1% TritonX-100).
(§6) All the test organisms are adjusted to an organism count of 1−5×10^6 CFU/ml using 0.85% sodium chloride solution.
(§7) The test substances are pre-pipetted into microtiter plates in an amount of 8 μl per well.
(§8) Pre-diluted organism suspensions are diluted 1:100 in CASO bouillon (bacteria and yeast) or Sabouraud 2% glucose bouillon (mould) and are added in an amount of 192 μl per well to the test substances.
(§9) The test batches are incubated for 48 hours at 37° C. (bacteria and yeast) or for 5 days at 28° C. (mould).
(§10) After incubation, the growth is evaluated by reference to the turbidity of the test batches (optical density) at 620 nm in a microplate reader.
(§11) One microtiter plate is used for each test organism and substance concentration. All the substances are tested in duplicate.

Row | Structure (SMILES) | MIC [ppm] CA [ppm]
1 | CC(C)(C)OC(=O)COc1cc(CCN)cc(OCC(=O)OC(C)(C)C)c1OCC(=O)OC(C)(C)C [Compound 76] | >120
2 | NCCc1ccc(OCc2ccccc2)c(OCc2ccccc2)c1 [Compound 19] | 60
3 | NCCc1cc(OCc2ccc(F)cc2)c(OCc2ccc(F)cc2)c(OCc2ccc(F)cc2)c1 [Compound 68] | 3.75
4 | CCC(C)Oc1ccc(CCN)cc1OC(C)CC (stereo not drawn) [Compound 32] | >120
5 | NCCc1ccc(OCc2ccc(C(F)(F)F)cc2)c(OCc2ccc(C(F)(F)F)cc2)c1 [Compound 10] | 3.75
6 | NCCc1cc(OCc2ccccc2)c(OCc2ccccc2)c(OCc2ccccc2)c1 [Compound 70] | 15
7 | CCCOc1ccc(CCN)cc1OCCC [Compound 29] | >120
8 | CC(C)OC(=O)COc1ccc(CCN)cc1OCC(=O)OC(C)C [Compound 24] | >120
9 | COC(=O)COc1ccc(CCN)cc1OCC(=O)OC [Compound 21] | >120
10 | CCC(CC)Oc1ccc(CCN)cc1OC(CC)CC [Compound 35] | 60
11 | CC(C)(C)c1ccc(COc2cc(CCN)cc(OCc3ccc(C(C)(C)C)cc3)c2OCc2ccc(C(C)(C)C)cc2)cc1 [Compound 69] | >120
12 | NCCc1cc(OCC(=O)c2ccccc2)c(OCC(=O)c2ccccc2)c(OCC(=O)c2ccccc2)c1 [Compound 97] | >120
13 | Cc1cccc(COc2ccc(CCN)cc2OCc2cccc(C)c2)c1 [Compound 6] | 7.5
14 | CC(C)CCOc1ccc(CCN)cc1OCCC(C)C [Compound 33] | 30
15 | NCCc1ccc(OCc2ccccc2C(F)(F)F)c(OCc2ccccc2C(F)(F)F)c1 [Compound 8] | 15
16 | CCOC(=O)CCCCOc1ccc(CCN)cc1OCCCCC(=O)OCC [Compound 28] | >120
17 | CC(C)OC(=O)COc1cc(CCN)cc(OCC(=O)OC(C)C)c1OCC(=O)OC(C)C [Compound 75] | >120

Test system: Escherichia coli NCTC 8196 (= EC)
Experiment: MIC determination in microtiter plates, Escherichia coli
Type: cell-based
Settings: Tables 2a/2b, 48 hours at 37° C., ≦20% growth, optical density 620 nm, some approximate values
Protocol: as §1, §2, §3, §4, §5, §6, §7, §8, §9, §10, §11

Row | Structure (SMILES) | MIC [ppm] EC [ppm]
18 | CC(C)(C)OC(=O)COc1cc(CCN)cc(OCC(=O)OC(C)(C)C)c1OCC(=O)OC(C)(C)C [Compound 76] | >120
19 | NCCc1ccc(OCc2ccccc2)c(OCc2ccccc2)c1 [Compound 19] | 28
20 | NCCc1cc(OCc2ccc(F)cc2)c(OCc2ccc(F)cc2)c(OCc2ccc(F)cc2)c1 [Compound 68] | 3.75
21 | CCC(C)Oc1ccc(CCN)cc1OC(C)CC (stereo not drawn) [Compound 32] | >120
22 | NCCc1ccc(OCc2ccc(C(F)(F)F)cc2)c(OCc2ccc(C(F)(F)F)cc2)c1 [Compound 10] | 7.5
23 | NCCc1cc(OCc2ccccc2)c(OCc2ccccc2)c(OCc2ccccc2)c1 [Compound 70] | 7.5
24 | CCCOc1ccc(CCN)cc1OCCC [Compound 29] | >120
25 | CC(C)OC(=O)COc1ccc(CCN)cc1OCC(=O)OC(C)C [Compound 24] | >120
26 | COC(=O)COc1ccc(CCN)cc1OCC(=O)OC [Compound 21] | >120
27 | CCC(CC)Oc1ccc(CCN)cc1OC(CC)CC [Compound 35] | 60
28 | CC(C)(C)c1ccc(COc2cc(CCN)cc(OCc3ccc(C(C)(C)C)cc3)c2OCc2ccc(C(C)(C)C)cc2)cc1 [Compound 69] | >120
29 | NCCc1cc(OCC(=O)c2ccccc2)c(OCC(=O)c2ccccc2)c(OCC(=O)c2ccccc2)c1 [Compound 97] | >120
30 | Cc1cccc(COc2ccc(CCN)cc2OCc2cccc(C)c2)c1 [Compound 6] | 15
31 | CC(C)CCOc1ccc(CCN)cc1OCCC(C)C [Compound 33] | 15
32 | NCCc1ccc(OCc2ccccc2C(F)(F)F)c(OCc2ccccc2C(F)(F)F)c1 [Compound 8] | 7.5
33 | CCOC(=O)CCCCOc1ccc(CCN)cc1OCCCCC(=O)OCC [Compound 28] | >120
34 | CC(C)OC(=O)COc1cc(CCN)cc(OCC(=O)OC(C)C)c1OCC(=O)OC(C)C [Compound 75] | >120

Test system: Pseudomonas aeruginosa CIP A-22 (= PA)
Experiment: MIC determination in microtiter plates, Pseudomonas aeruginosa
Type: cell-based
Settings: Tables 2a/2b, 48 hours at 37° C., ≦20% growth, optical density 620 nm, some approximate values
Protocol: as §1, §2, §3, §4, §5, §6, §7, §8, §9, §10, §11

Row | Structure (SMILES) | MIC [ppm] PA [ppm]
35 | CC(C)(C)OC(=O)COc1cc(CCN)cc(OCC(=O)OC(C)(C)C)c1OCC(=O)OC(C)(C)C [Compound 76] | >120
36 | NCCc1ccc(OCc2ccccc2)c(OCc2ccccc2)c1 [Compound 19] | >120
37 | NCCc1cc(OCc2ccc(F)cc2)c(OCc2ccc(F)cc2)c(OCc2ccc(F)cc2)c1 [Compound 68] | >120
38 | CCC(C)Oc1ccc(CCN)cc1OC(C)CC (stereo not drawn) [Compound 32] | >120
39 | NCCc1ccc(OCc2ccc(C(F)(F)F)cc2)c(OCc2ccc(C(F)(F)F)cc2)c1 [Compound 10] | >120
40 | NCCc1cc(OCc2ccccc2)c(OCc2ccccc2)c(OCc2ccccc2)c1 [Compound 70] | >120
41 | CCCOc1ccc(CCN)cc1OCCC [Compound 29] | >120
42 | CC(C)OC(=O)COc1ccc(CCN)cc1OCC(=O)OC(C)C [Compound 24] | >120
43 | COC(=O)COc1ccc(CCN)cc1OCC(=O)OC [Compound 21] | >120
44 | CCC(CC)Oc1ccc(CCN)cc1OC(CC)CC [Compound 35] | >120
45 | CC(C)(C)c1ccc(COc2cc(CCN)cc(OCc3ccc(C(C)(C)C)cc3)c2OCc2ccc(C(C)(C)C)cc2)cc1 [Compound 69] | >120
46 | NCCc1cc(OCC(=O)c2ccccc2)c(OCC(=O)c2ccccc2)c(OCC(=O)c2ccccc2)c1 [Compound 97] | >120
47 | Cc1cccc(COc2ccc(CCN)cc2OCc2cccc(C)c2)c1 [Compound 6] | 120
48 | CC(C)CCOc1ccc(CCN)cc1OCCC(C)C [Compound 33] | 120
49 | NCCc1ccc(OCc2ccccc2C(F)(F)F)c(OCc2ccccc2C(F)(F)F)c1 [Compound 8] | >120
50 | CCOC(=O)CCCCOc1ccc(CCN)cc1OCCCCC(=O)OCC [Compound 28] | >120
51 | CC(C)OC(=O)COc1cc(CCN)cc(OCC(=O)OC(C)C)c1OCC(=O)OC(C)C [Compound 75] | >120

Test system: Aspergillus niger ATCC 6275 (= AN)
Experiment: MIC determination in microtiter plates, Aspergillus niger
Type: cell-based
Settings: Tables 2a/2b, 5 days at 28° C., ≦20% growth, optical density 620 nm, some approximate values
Protocol: as §1, §2, §3, §4, §5, §6, §7, §8, §9, §10, §11

Row | Structure (SMILES) | MIC [ppm] AN [ppm]
52 | CC(C)(C)OC(=O)COc1cc(CCN)cc(OCC(=O)OC(C)(C)C)c1OCC(=O)OC(C)(C)C [Compound 76] | >120
53 | NCCc1ccc(OCc2ccccc2)c(OCc2ccccc2)c1 [Compound 19] | >120
54 | NCCc1cc(OCc2ccc(F)cc2)c(OCc2ccc(F)cc2)c(OCc2ccc(F)cc2)c1 [Compound 68] | >120
55 | CCC(C)Oc1ccc(CCN)cc1OC(C)CC (stereo not drawn) [Compound 32] | >120
56 | NCCc1ccc(OCc2ccc(C(F)(F)F)cc2)c(OCc2ccc(C(F)(F)F)cc2)c1 [Compound 10] | >120
57 | NCCc1cc(OCc2ccccc2)c(OCc2ccccc2)c(OCc2ccccc2)c1 [Compound 70] | >120
58 | CCCOc1ccc(CCN)cc1OCCC [Compound 29] | >120
59 | CC(C)OC(=O)COc1ccc(CCN)cc1OCC(=O)OC(C)C [Compound 24] | 15
60 | COC(=O)COc1ccc(CCN)cc1OCC(=O)OC [Compound 21] | 120
61 | CCC(CC)Oc1ccc(CCN)cc1OC(CC)CC [Compound 35] | >120
62 | CC(C)(C)c1ccc(COc2cc(CCN)cc(OCc3ccc(C(C)(C)C)cc3)c2OCc2ccc(C(C)(C)C)cc2)cc1 [Compound 69] | >120
63 | NCCc1cc(OCC(=O)c2ccccc2)c(OCC(=O)c2ccccc2)c(OCC(=O)c2ccccc2)c1 [Compound 97] | >120
64 | Cc1cccc(COc2ccc(CCN)cc2OCc2cccc(C)c2)c1 [Compound 6] | 120
65 | CC(C)CCOc1ccc(CCN)cc1OCCC(C)C [Compound 33] | >120
66 | NCCc1ccc(OCc2ccccc2C(F)(F)F)c(OCc2ccccc2C(F)(F)F)c1 [Compound 8] | >120
67 | CCOC(=O)CCCCOc1ccc(CCN)cc1OCCCCC(=O)OCC [Compound 28] | >120
68 | CC(C)OC(=O)COc1cc(CCN)cc(OCC(=O)OC(C)C)c1OCC(=O)OC(C)C [Compound 75] | >120

Test system: Staphylococcus hominis DMS 20328 (= SH)
Experiment: MIC determination in microtiter plates, Staphylococcus hominis
Type: cell-based
Settings: Tables 2a/2b, 48 hours at 37° C., ≦20% growth, optical density 620 nm, tested at 120, 60, 30, 15, 7.5 and 3.5 ppm, some approximate
Protocol: as §1, §2, §3, §4, §5, §6, §7, §8, §9, §10, §11

Row | Structure (SMILES) | MIC [ppm] SH [ppm]
69 | NCCc1ccc(OCc2ccccc2)c(OCc2ccccc2)c1 [Compound 19] | 28
70 | NCCc1cc(OCc2ccc(F)cc2)c(OCc2ccc(F)cc2)c(OCc2ccc(F)cc2)c1 [Compound 68] | 3.75
71 | CCC(C)Oc1ccc(CCN)cc1OC(C)CC (stereo not drawn) [Compound 32] | >120
72 | NCCc1ccc(OCc2ccc(C(F)(F)F)cc2)c(OCc2ccc(C(F)(F)F)cc2)c1 [Compound 10] | 3.75
73 | NCCc1cc(OCc2ccccc2)c(OCc2ccccc2)c(OCc2ccccc2)c1 [Compound 70] | 7.5
74 | CCCOc1ccc(CCN)cc1OCCC [Compound 29] | >120
75 | CC(C)OC(=O)COc1ccc(CCN)cc1OCC(=O)OC(C)C [Compound 24] | >120
76 | COC(=O)COc1ccc(CCN)cc1OCC(=O)OC [Compound 21] | >120
77 | CCC(CC)Oc1ccc(CCN)cc1OC(CC)CC [Compound 35] | 60
78 | CC(C)(C)c1ccc(COc2cc(CCN)cc(OCc3ccc(C(C)(C)C)cc3)c2OCc2ccc(C(C)(C)C)cc2)cc1 [Compound 69] | >120
79 | NCCc1cc(OCC(=O)c2ccccc2)c(OCC(=O)c2ccccc2)c(OCC(=O)c2ccccc2)c1 [Compound 97] | >120
80 | Cc1cccc(COc2ccc(CCN)cc2OCc2cccc(C)c2)c1 [Compound 6] | 7.5
81 | CC(C)CCOc1ccc(CCN)cc1OCCC(C)C [Compound 33] | 30
82 | NCCc1ccc(OCc2ccccc2C(F)(F)F)c(OCc2ccccc2C(F)(F)F)c1 [Compound 8] | 7.5
83 | CCOC(=O)CCCCOc1ccc(CCN)cc1OCCCCC(=O)OCC [Compound 28] | >120
84 | CC(C)OC(=O)COc1cc(CCN)cc(OCC(=O)OC(C)C)c1OCC(=O)OC(C)C [Compound 75] | 60
